Assay results from US20020064500A1, “Radiotracers for in vivo study of acetylcholinesterase and alzheimer's disease” (priority 1999, published 2002).

How the values were obtained:
acetylcholinesterase [1] = biological target: T1, acetylcholinesterase (Mus musculus, UniProt P21836); test: Kinetic experiment: regional brain biodistribution in mice; type: in vivo, male Charles River mice (CD-1); conditions: for percentage of the administered dose/gram of brain tissue (%ID/g): 5 minutes post i.v. injection, mean of 3
T1 construct: from tissue; host or cells: brain regions of CD-1 mice after intravenous injection
T1 sequence (P21836 32-614): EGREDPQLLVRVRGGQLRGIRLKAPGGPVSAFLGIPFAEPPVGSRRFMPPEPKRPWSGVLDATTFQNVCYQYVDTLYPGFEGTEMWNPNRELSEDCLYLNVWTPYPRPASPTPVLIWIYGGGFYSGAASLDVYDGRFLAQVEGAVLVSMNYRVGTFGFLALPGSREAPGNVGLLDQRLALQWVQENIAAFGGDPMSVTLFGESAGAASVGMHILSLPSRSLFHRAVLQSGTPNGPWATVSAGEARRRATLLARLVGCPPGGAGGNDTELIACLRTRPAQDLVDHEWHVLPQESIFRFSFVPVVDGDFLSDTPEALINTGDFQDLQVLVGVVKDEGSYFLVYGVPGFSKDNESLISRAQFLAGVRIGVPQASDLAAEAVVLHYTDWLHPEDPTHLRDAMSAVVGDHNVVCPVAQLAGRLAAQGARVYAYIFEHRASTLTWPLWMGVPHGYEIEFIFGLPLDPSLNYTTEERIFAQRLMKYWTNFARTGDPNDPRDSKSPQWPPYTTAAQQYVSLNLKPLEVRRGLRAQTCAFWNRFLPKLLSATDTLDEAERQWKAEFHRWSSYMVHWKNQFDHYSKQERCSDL
Description: 21 male Charles River mice (CD-1) were divided into 7 groups of 3 mice each. Each mouse was injected via a tail vein with approximately 350 μCi of compound II (10 μg). Each mouse was sacrificed by cervical dislocation at the following times post injection: group 1 at 5 minutes; group 2 at 15 minutes; group 3 at 30 minutes; group 4 at 45 minutes; group 5 at 60; group 6 at 90 minutes; and group 7 at 120 minutes. At the time of sacrifice of a particular group, the brains of each mouse were quickly removed and dissected on ice. The following regions were collected weighed and assayed for radioactivity: cerebellum, hippocampus, striatum, parietal cortex, thalamus. The following values, averaged over each group of three mice, for the percentage of the administered dose of compound II/gram of brain tissue (%ID/g), were found in the following brain regions at five minutes post injection: striatum (6.19% injected dose/gram tissue); thalamus (4.76%); cortex (4.01%); cerebellum (3.76%); and hippocampus (3.41%).

acetylcholinesterase [2] = biological target: acetylcholinesterase (Homo sapiens, UniProt P22303); test: PET imaging of acetylcholinesterase in a human brain, with and without ARICEPT; conditions: for Normalized uptake (nCi/ccBRAIN/nCi/ccPLASMA): healthy human subject, i.v., PET, average of scans after 42 minutes; for Normalized uptake post 5 mg ARICEPT (nCi/ccBRAIN/nCi/ccPLASMA): same subject, 3 hours after oral 5 mg ARICEPT tablet
acetylcholinesterase (Homo sapiens, UniProt P22303), sequence (P22303 32-614): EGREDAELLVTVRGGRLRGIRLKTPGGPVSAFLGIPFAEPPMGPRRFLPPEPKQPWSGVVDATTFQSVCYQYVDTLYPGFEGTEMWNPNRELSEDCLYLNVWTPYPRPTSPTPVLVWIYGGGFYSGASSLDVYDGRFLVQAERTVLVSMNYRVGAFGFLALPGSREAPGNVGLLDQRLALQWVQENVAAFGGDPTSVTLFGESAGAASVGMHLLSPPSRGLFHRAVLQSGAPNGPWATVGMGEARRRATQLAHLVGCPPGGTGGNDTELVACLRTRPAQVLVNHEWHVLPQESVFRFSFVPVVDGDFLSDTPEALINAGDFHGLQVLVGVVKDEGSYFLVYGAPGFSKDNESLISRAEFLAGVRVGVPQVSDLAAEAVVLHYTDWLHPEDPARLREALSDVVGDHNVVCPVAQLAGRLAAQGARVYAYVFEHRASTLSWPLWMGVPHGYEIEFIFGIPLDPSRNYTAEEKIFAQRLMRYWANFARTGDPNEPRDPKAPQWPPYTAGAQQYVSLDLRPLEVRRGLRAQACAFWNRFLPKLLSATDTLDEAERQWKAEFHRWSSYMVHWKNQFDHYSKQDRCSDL

acetylcholinesterase [3] = biological target: T1, acetylcholinesterase; test: Dose response experiment: blocking of compound II brain binding by compound III in mice; type: in vivo; conditions: 5 minutes before compound II i.v.
Description: Male Charles River mice (CD-1) were divided into 5 groups of 3 mice each. Non-radiolabeled compound III was administered to each mouse in increasing doses as follows: group1, saline controls; group 2, 0.01 mg/kg; group 3, 0.1 mg/kg; group 4, 0.3 mg/kg; and group 5,1 mg/kg. Five minutes after the injection with compound III or the saline control, each mouse was administered compound II (421 μCi, 8 μg) by intravenous injection as above. Each mouse was sacrificed by cervical dislocation and brain tissue dissected and the radioactivity of each brain region assayed as described above. The values, averaged over each group of three mice, for the percentage of the administered dose of compound II/gram of brain tissue at each dosage of compound III for each brain region were calculated (FIG. 4 below).

Structure (SMILES): [11CH3]N1C(=O)Cc2cc3c(CCC4CCN(Cc5ccccc5)CC4)noc3cc21 [compound II, 5,7-dihydro-7-[^11C]-methyl-3-[2-[1-(phenylmethyl)4-piperidinyl]ethyl]-6H-pyrrolo[3,2-f]-1,2-benzisoxazole-6-one]
- highest specific binding defined as striatum-cerebellum (acetylcholinesterase [1]; 30 minutes post i.v. injection): 4.33%
- percentage of the administered dose/gram of brain tissue (%ID/g) (acetylcholinesterase [1]; cerebellum): 3.76%
- percentage of the administered dose/gram of brain tissue (%ID/g) (acetylcholinesterase [1]; cortex): 4.01%
- percentage of the administered dose/gram of brain tissue (%ID/g) (acetylcholinesterase [1]; hippocampus): 3.41%
- percentage of the administered dose/gram of brain tissue (%ID/g) (acetylcholinesterase [1]; striatum): 6.19 % injected dose/gram tissue
- percentage of the administered dose/gram of brain tissue (%ID/g) (acetylcholinesterase [1]; thalamus): 4.76%
- Normalized uptake (nCi/ccBRAIN/nCi/ccPLASMA) (acetylcholinesterase [2]; Caudate): 54 nCi/ccBRAIN/nCi/ccPLASMA
- Normalized uptake post 5 mg ARICEPT (nCi/ccBRAIN/nCi/ccPLASMA) (acetylcholinesterase [2]; Caudate): 19 nCi/ccBRAIN/nCi/ccPLASMA
- Normalized uptake (nCi/ccBRAIN/nCi/ccPLASMA) (acetylcholinesterase [2]; Cerebellum): 47 nCi/ccBRAIN/nCi/ccPLASMA
- Normalized uptake post 5 mg ARICEPT (nCi/ccBRAIN/nCi/ccPLASMA) (acetylcholinesterase [2]; Cerebellum): 13 nCi/ccBRAIN/nCi/ccPLASMA
- Normalized uptake (nCi/ccBRAIN/nCi/ccPLASMA) (acetylcholinesterase [2]; Frontal cortex): 26 nCi/ccBRAIN/nCi/ccPLASMA
- Normalized uptake post 5 mg ARICEPT (nCi/ccBRAIN/nCi/ccPLASMA) (acetylcholinesterase [2]; Frontal cortex): 7 nCi/ccBRAIN/nCi/ccPLASMA
- Normalized uptake (nCi/ccBRAIN/nCi/ccPLASMA) (acetylcholinesterase [2]; Hippocampus): 30 nCi/ccBRAIN/nCi/ccPLASMA
- Normalized uptake (nCi/ccBRAIN/nCi/ccPLASMA) (acetylcholinesterase [2]; Medulla Oblongata): 40 nCi/ccBRAIN/nCi/ccPLASMA
- Normalized uptake (nCi/ccBRAIN/nCi/ccPLASMA) (acetylcholinesterase [2]; Occipital cortex): 23 nCi/ccBRAIN/nCi/ccPLASMA
- Normalized uptake (nCi/ccBRAIN/nCi/ccPLASMA) (acetylcholinesterase [2]; Parietal cortex): 27 nCi/ccBRAIN/nCi/ccPLASMA
- Normalized uptake post 5 mg ARICEPT (nCi/ccBRAIN/nCi/ccPLASMA) (acetylcholinesterase [2]; Parietal cortex): 7 nCi/ccBRAIN/nCi/ccPLASMA
- Normalized uptake (nCi/ccBRAIN/nCi/ccPLASMA) (acetylcholinesterase [2]; Pons): 36 nCi/ccBRAIN/nCi/ccPLASMA
- Normalized uptake (nCi/ccBRAIN/nCi/ccPLASMA) (acetylcholinesterase [2]; Putamen): 61 nCi/ccBRAIN/nCi/ccPLASMA
- Normalized uptake post 5 mg ARICEPT (nCi/ccBRAIN/nCi/ccPLASMA) (acetylcholinesterase [2]; Putamen): 26 nCi/ccBRAIN/nCi/ccPLASMA
- Normalized uptake (nCi/ccBRAIN/nCi/ccPLASMA) (acetylcholinesterase [2]; Temporal cortex): 26 nCi/ccBRAIN/nCi/ccPLASMA
- Normalized uptake (nCi/ccBRAIN/nCi/ccPLASMA) (acetylcholinesterase [2]; Thalamus): 33 nCi/ccBRAIN/nCi/ccPLASMA

Structure (SMILES): O=C1Cc2cc3c(CCC4CCN(Cc5ccccc5)CC4)noc3cc2N1 [compound III, 5,7-dihydro-3-[2-[1-(phenylmethyl)-4-piperidinyl]ethyl]-6H-pyrrolo[3,2-f]-1,2-benzisoxazole-6-one]
- reduction of compound II binding in striatum relative to the saline control (acetylcholinesterase [3]; compound III 0.1 mg/kg): 6%
- reduction of compound II binding in striatum relative to the saline control (acetylcholinesterase [3]; compound III 0.3 mg/kg): 20%
- reduction of compound II binding in striatum relative to the saline control (acetylcholinesterase [3]; compound III 1 mg/kg): 52%
